Consider 84 compounds from the Bradley open melting point set (2014).

Several values for one entry are separate records, joined by “and”; a condition that tells them apart may be missing. Equal entries are not always repeated.

By melting point is commonly meant the temperature of the solid-liquid transition.

As to `C(=C/c1ccccc1)/c1ccccc1` [cis-stilbene], the melting point worked out at 2 °C. Turning to `Cc1ccc(C2(O)CCN(CCCC(=O)c3ccc(F)cc3)CC2)cc1` [moperone], the melting point was 118 °C. `CC(N)=S` [Ethanethioamide] displayed a melting point of 115 °C. With `CC(C)[C@H](NC(=O)OC(C)(C)C)C(=O)O` [N-boc-L-valine] the figure was 79 °C.

`CCC(=O)O[C@]1(C(=O)SCF)[C@H](C)C[C@H]2[C@@H]3C[C@H](F)C4=CC(=O)C=C[C@]4(C)[C@@]3(F)[C@@H](O)C[C@@]21C` [Fluticasone Propionate]: the melting point was found to be 272 °C.

`CCCCOc1ccc(NC(=O)C(F)(F)C(F)(F)C(F)(F)C(F)(F)C(F)(F)C(F)(F)C(F)(F)C(F)(F)F)cc1` yielded a melting point of 137 °C. Compound `Cc1cc(O)c(C(C)C)cc1C1(c2cc(C(C)C)c(O)cc2C)OC(=O)c2ccccc21` [thymolphthalein] gave a melting point of 252 °C. With `O=C(Cl)c1cc([N+](=O)[O-])cc([N+](=O)[O-])c1` [3,5-Dinitrobenzoyl chloride] the figure was 69 °C.

Compound `COC(=O)c1cc(F)ccc1N` [methyl 2-amino-5-fluorobenzoate] registered a melting point of 23 °C. On to `N#CC(=CNNc1ccccc1)c1ccccc1` [2-phenyl-3-(2-phenylhydrazino)prop-2-enenitrile], for which the melting point was determined as 156 °C. In turn, `O=C(CBr)c1c(F)c(F)c(F)c(F)c1F` [2-bromo-2',3',4',5',6'-pentafluoroacetophenone] registered a melting point of 31 °C. `Cc1cc(Br)cc(Cl)c1N` [4-bromo-2-chloro-6-methylaniline] registered a melting point of 39 °C. The compound `Cc1c(C)c(C)c(Br)c(C)c1C` [bromopentamethylbenzene] gave a melting point of 162 °C. Consider `Cc1ccc(C(C)C)cc1` [1-methyl-4-isopropylbenzene], for which the melting point was -68 °C.

In the case of `N#Cc1c(N)sc2c1CCCC2` [2-amino-4,5,6,7-tetrahydrobenzo[b]thiophene-3-carbonitrile], the melting point is 143 °C.

On to `N#Cc1ccc(C(c2ccc(C#N)cc2)n2cncn2)cc1` [Letrozole], for which the melting point stood at 184 °C. The same measure for `CC(Oc1ccc(Cl)cc1Cl)C(=O)O` (centres undefined) [2-(2,4-dichlorophenoxy)propionic acid]: 114 °C; for `CC(C)C1=CC2=CC[C@@H]3[C@](C)(CCC[C@@]3(C)C(=O)O)[C@H]2CC1` [abietic acid]: 161 °C; for `O=C(CO)[C@@H](O)[C@@H](O)[C@H](O)CO` [D-tagatose]: 135 °C. As for `C=Cc1ccc(-c2ccccc2)cc1` [p-phenylstyrene], the melting point was found to be 119 °C. The compound `CN(C)c1ccc(C(=O)Cl)cc1` [4-dimethylaminobenzoyl chloride] gave a melting point of 145 °C.

`O=Cc1ccnc(Cl)c1` [2-chloropyridine-4-carboxaldehyde] displayed a melting point of 48 °C.

Regarding `OCCCCCCCCCCCCO` [1,12-dodecanediol], the melting point worked out at 83 °C. `CCCCCCCc1ccccc1` [N-heptylbenzene] gave a melting point of -48 °C. The same measure for `Cc1nc(C)c(C)nc1C` [Tetramethylpyrazine]: 85 °C; for `O=CCCCC=O` [glutaraldehyde]: -21 °C; for `c1ccc2c(c1)CCO2` [2,3-dihydrobenzo[b]furan]: -21 °C. With `Cc1cc(CO)nn1C` [1H-pyrazole-3-methanol, 1,5-dimethyl-] the figure was 41 °C; with `OC1CCCC1` [cyclopentanol], -19 °C; with `CN(N)c1ccc(C(F)(F)F)cc1[N+](=O)[O-]` [N-methyl-N-[2-nitro-4-(trifluoromethyl)phenyl]hydrazine], 66 °C. With `Cc1cc(Cl)nc2ccccc12` [2-Chloro-4-methylquinoline] the figure was 56.9 °C; with `Cc1cc(C(O)=NCC(=N)O)c(C)n1-c1ccc(F)cc1` [OSM-S-19], 194 °C; with `CN(C)c1ccccc1` [n,n-dimethylaniline], 3 °C. `c1ccc2c(c1)cc1ccc3cccc4ccc2c1c34` [Benzo[pqr]tetraphene] yielded a melting point of 176 °C.

Compound `O=C(O)CNc1ccccc1` [N-phenylglycine] returned a melting point of 118 °C. In turn, `C[C@@H]1O[C@@H](O[C@H]2C[C@@H](O)[C@]3(CO)[C@H]4[C@H](O)C[C@]5(C)[C@@H](C6=CC(=O)OC6)CC[C@]5(O)[C@@H]4CC[C@]3(O)C2)[C@H](O)[C@H](O)[C@H]1O` [Ouabain] displayed a melting point of 200 °C. The same measure for `CC(=O)Oc1ccccc1C(=O)O` [acetylsalicylic acid]: 135 °C. As to `O=S(=O)(Cl)c1ccc(Cl)cc1` [4-chlorobenzenesulfonyl chloride], the melting point turned out to be 52 °C. With `O=c1[nH]c(=O)n([C@H]2C[C@H](O)[C@@H](CO)O2)cc1F` [5-fluoro-2'-deoxyuridine] the figure was 150 °C; with `CNCCO` [2-(Methylamino)ethanol], -4.5 °C; with `CCSc1ccc(B(O)O)cc1` [4-(ethylthio)benzeneboronic acid], 105 °C. With `O=C1C2CC3=C(CC=CC3)CC2C(=O)C2CC3=C(CC=CC3)CC12` (centres undefined) the figure was 227 °C; with `CC(C)(C)OC(=O)N1CCC[C@H](O)C1` [(S)-1-boc-3-hydroxypiperidine], 37 °C.

Take `c1csc(P(c2cccs2)c2cccs2)c1` [tris(2-thienyl)phosphine]: the melting point was 29 °C. With `CCCCCCCCCCCCCCCC(C)C` [2-methylheptadecane] the figure was 6 °C; with `CNc1ccc(Cl)cc1C(=O)c1ccccc1` [5-chloro-2-methylaminobenzophenone], 96 °C; with `COc1ccc(O)c(C=O)c1` [2-hydroxy-5-methoxybenzaldehyde], 15 °C. With `N#Cc1ccc(Oc2ccnc3ccccc23)cc1C#N` [4-(Quinolin-4-yloxy)phthalonitrile] the figure was 175 °C; with `COc1ccc(OCC(=O)O)cc1` [4-methoxyphenoxyacetic acid], 111 °C.

As for `Oc1cccc2[nH]ccc12` [4-hydroxyindole], the melting point worked out at 98 °C. In turn, `C1=CC=C/C=CC=C1` [1,3,5,7-cyclooctatetraene] showed a melting point of -5 °C. With `Oc1ccc(-c2ccccc2)cc1` [p-phenylphenol] the figure was 167 °C. As to `CCCC(=O)O` [butyric acid], the melting point is -5.7 °C. The same measure for `CCOC(=O)/C(C#N)=N\Nc1cccc([N+](=O)[O-])c1` [Ethyl (2Z)-cyano[(3-nitrophenyl)hydrazono]acetate]: 156 °C; for `OB(O)c1cnc(OCc2ccccc2)nc1OCc1ccccc1` [2,4-dibenzyloxypyrimidine-5-boronic acid]: 90 °C; for `Cc1cccc(C)c1O` [2,6-Dimethylphenol]: 49 °C. As to `CCOC(=O)C=C1SC(N2CCCCC2)C(=O)N1CC` (centres undefined), the melting point was 86 °C. The compound `[O-][n+]1c(Cl)cccc1Cl` [2,6-dichloropyridine n-oxide] yielded a melting point of 138 °C. `Cc1ccc([N+](=O)[O-])c(O)c1` [5-methyl-2-nitrophenol]: the melting point worked out at 55 °C. For `CCCCCCN` [Hexan-1-amine], the melting point is -23 °C. With `CSCC[C@H](NC(=O)OCC1c2ccccc2-c2ccccc21)C(=O)O` [N-fmoc-L-methionine] the figure was 134 °C. With `CC(Br)C(C)(C)Br` (centres undefined) [2,3-dibromo-2-methylbutane] the figure was 15 °C. For the compound `CC1NC(C(=O)O)CC2=C3C=CCC=C3N=C21` (centres undefined), the melting point came to 244 °C. In the case of `CC12CCC(/C(=C/N(O)c3ccccc3)C1=O)C2(C)C` (centres undefined), the melting point came to 107 °C. `Cc1ccn[nH]c1=O` [4-Methylpyridazin-3(2H)-one]: the melting point worked out at 154 °C. With `Cc1ccccc1-n1c(C)nc2ccccc2c1=O` [Methaqualone], the melting point came to 113 °C. In the case of `COc1cc(C#N)cc(OC)c1OC` [3,4,5-trimethoxybenzonitrile], the melting point came to 94 °C. With `O=C1OC(c2ccccc2)=N/C1=C/c1ccc(-c2ccccc2Br)o1` the figure was 160 °C; with `CC12CCC=C1C1CCC3CC(=O)CCC3(C)C1CC2` (centres undefined) [androst-14-en-3-one], 116 °C; with `OCCOCCOCCO` [2,2'-[Ethane-1,2-diylbis(oxy)]diethanol], -4 °C. On to `NC(=O)c1ccccc1` [benzamide], for which the melting point is 126 °C and 127 °C. For `O=Cc1cc(Br)c(O)c(Br)c1` [3,5-dibromo-4-hydroxybenzaldehyde], the melting point stood at 182 °C.

`C[C@]12CC[C@@H]3c4ccc(O)cc4CC[C@H]3[C@@H]1CCC2=O` [estrone] returned a melting point of 259 °C. In turn, `Cc1cc(C2(c3cc(C)c(O)c(CN(CC(=O)O)CC(=O)O)c3)OS(=O)(=O)c3ccccc32)cc(CN(CC(=O)O)CC(=O)O)c1O` displayed a melting point of 210 °C.

For the compound `C=CCC(C)C` [4-methyl-1-pentene], the melting point is -153 °C. Consider `N#CC1(C#N)C=C(c2ccccc2)c2ccccc21` [3-phenyl-1H-indene-1,1-dicarbonitrile], for which the melting point came to 135 °C.

As for `CCOC(=O)c1ccc(N)cc1` [ethyl 4-aminobenzoate], the melting point was determined as 90 °C. For `CC(C)CCCC(C)C1CCC2C3CC(O)C4=CC(=O)CCC4(C)C3CCC12C` (centres undefined) [6-hydroxycholest-4-en-3-one], the melting point is 155 °C. As for `O=C(O)c1c(F)c(F)c(F)c(F)c1C(=O)O` [tetrafluorophthalic acid], the melting point was 156 °C. The same measure for `O=C1/C(=N\Nc2cccc(F)c2)C(C(F)(F)F)=NN1c1ccccc1`: 106 °C. The same measure for `BrCCCCOc1ccccc1` [(4-bromobutoxy)benzene]: 42 °C; for `Oc1ccc(Cl)cc1Cc1cc(Cl)ccc1O` [2,2'-methylenebis(4-chlorophenol)]: 174 °C. For the compound `CCCCCCCCCCCCI` [1-iodododecane], the melting point came to 0 °C. The same measure for `C[C@]12CCC(=O)CC1CCC1=C2CC[C@@H]2C(=O)CC[C@@H]12` (some centres undefined) [10-methylgon-8-ene-3,17-dione]: 138 °C.
